Laboratory results as given in PMC3534778 (European journal of pharmacology, 2012).
Values joined by “and” are separate entries in the source; they are usually repeats but may differ in a detail not shown here. Equal entries are not always repeated. “Also recorded” adds a separate entry of the source. Where two headings read alike, the source gives them in different places.

How the values were obtained:
[1] = target: NMDA receptor; format: binding, rat
[2] = target: rat α7-nicotinic acetylcholine receptor (Rattus norvegicus, UniProt Q05941); format: cell-based
[3] = target: rat α3β4-nicotinic acetylcholine receptor (Rattus norvegicus, UniProt P04757+P12392); format: cell-based; conditions: read-out: IC50, inhibition of (S)-nicotine-induced whole-cell current
[4] = human, in vivo; cited from earlier work
[5] = target: α4β2-nicotinic acetylcholine receptor (Homo sapiens, UniProt P17787+P43681); assay: Acetylcholine-evoked currents in α4β2-nicotinic acetylcholine receptor; format: cell-based
[6] = target: α7-nicotinic acetylcholine receptor (Rattus norvegicus, UniProt Q05941); format: binding
α7-nicotinic acetylcholine receptor, sequence (Q05941 23-502): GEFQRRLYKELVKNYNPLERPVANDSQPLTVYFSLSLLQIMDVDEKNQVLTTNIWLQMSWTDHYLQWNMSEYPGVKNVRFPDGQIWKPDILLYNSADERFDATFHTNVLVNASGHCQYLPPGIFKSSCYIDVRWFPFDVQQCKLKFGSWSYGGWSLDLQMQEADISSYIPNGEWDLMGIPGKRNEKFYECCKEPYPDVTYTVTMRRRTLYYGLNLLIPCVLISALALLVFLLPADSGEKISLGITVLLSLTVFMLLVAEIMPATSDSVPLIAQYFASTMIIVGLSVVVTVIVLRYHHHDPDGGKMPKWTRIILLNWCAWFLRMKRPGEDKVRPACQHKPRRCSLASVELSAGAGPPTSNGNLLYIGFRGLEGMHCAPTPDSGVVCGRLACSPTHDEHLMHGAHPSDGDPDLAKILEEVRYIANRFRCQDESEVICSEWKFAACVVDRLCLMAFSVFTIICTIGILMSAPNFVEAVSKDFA

rat α3β4-nicotinic acetylcholine receptor, sequence (P04757 26-499): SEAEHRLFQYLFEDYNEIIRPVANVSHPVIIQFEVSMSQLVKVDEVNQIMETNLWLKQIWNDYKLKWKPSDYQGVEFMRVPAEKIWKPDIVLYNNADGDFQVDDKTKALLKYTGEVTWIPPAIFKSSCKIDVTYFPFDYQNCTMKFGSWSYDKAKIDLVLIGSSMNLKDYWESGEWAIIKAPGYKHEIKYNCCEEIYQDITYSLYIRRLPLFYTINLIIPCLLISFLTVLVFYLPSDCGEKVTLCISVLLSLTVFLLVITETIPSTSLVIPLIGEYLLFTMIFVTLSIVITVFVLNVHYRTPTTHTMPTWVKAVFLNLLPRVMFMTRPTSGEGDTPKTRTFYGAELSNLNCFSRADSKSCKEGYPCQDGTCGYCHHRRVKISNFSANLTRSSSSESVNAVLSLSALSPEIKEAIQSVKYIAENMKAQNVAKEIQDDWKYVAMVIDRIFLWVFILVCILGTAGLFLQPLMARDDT
rat α3β4-nicotinic acetylcholine receptor, sequence (P12392 21-495): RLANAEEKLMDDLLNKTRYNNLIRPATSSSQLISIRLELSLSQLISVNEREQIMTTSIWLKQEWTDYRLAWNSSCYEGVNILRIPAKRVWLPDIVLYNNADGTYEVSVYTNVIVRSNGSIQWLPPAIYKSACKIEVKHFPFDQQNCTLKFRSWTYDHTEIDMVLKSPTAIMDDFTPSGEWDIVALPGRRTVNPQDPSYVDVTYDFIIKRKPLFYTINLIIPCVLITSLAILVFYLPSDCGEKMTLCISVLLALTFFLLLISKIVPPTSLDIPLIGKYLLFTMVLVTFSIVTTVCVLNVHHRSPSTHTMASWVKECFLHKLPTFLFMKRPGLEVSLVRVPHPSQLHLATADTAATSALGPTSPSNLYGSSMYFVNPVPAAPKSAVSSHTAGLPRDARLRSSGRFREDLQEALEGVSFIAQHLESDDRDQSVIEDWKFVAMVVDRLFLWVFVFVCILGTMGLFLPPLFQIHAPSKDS
rat α7-nicotinic acetylcholine receptor, sequence (Q05941 23-502): as the sequence (Q05941 23-502) above
α4β2-nicotinic acetylcholine receptor, sequence (P43681 29-627 limits assumed): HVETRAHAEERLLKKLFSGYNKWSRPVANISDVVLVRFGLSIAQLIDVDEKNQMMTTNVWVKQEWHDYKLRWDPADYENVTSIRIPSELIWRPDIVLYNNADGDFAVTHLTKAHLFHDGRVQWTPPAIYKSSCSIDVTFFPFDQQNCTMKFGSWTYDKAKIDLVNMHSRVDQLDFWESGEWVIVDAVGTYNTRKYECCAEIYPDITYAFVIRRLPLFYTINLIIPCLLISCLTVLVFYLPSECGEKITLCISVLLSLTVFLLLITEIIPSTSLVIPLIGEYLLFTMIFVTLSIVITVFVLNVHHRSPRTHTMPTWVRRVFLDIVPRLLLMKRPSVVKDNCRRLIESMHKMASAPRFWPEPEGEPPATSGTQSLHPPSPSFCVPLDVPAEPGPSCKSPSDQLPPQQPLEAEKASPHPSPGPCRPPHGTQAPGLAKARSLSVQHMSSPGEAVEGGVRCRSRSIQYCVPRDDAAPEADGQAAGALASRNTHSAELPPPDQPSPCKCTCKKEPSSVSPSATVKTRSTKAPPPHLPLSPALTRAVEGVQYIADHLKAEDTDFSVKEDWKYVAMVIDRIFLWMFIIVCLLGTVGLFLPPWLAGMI
α4β2-nicotinic acetylcholine receptor, sequence (P17787 26-502 limits assumed): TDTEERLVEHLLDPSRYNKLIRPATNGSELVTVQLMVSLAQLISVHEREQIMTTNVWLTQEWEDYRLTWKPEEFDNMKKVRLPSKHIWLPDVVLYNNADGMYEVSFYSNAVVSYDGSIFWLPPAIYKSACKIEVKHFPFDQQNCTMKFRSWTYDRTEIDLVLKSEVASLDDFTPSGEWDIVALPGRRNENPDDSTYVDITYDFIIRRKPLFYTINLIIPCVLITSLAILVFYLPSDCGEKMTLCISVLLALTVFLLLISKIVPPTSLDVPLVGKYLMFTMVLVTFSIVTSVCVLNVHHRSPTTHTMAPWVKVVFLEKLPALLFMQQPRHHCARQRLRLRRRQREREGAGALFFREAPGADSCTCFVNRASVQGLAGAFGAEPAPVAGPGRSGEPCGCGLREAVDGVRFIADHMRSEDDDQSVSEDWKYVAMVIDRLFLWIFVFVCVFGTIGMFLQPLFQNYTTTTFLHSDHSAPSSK

SMILES: N[C@@]1(c2ccccc2Cl)CCC[C@@H](O)C1=O [(2R,6R)-hydroxynorketamine]
- Ki [1]: > 100 µM
- Mean current evoked by 280 μM acetylcholine, normalized to acetylcholine alone [2]: 0.354 and 0.489
- IC50 [3]: > 200 µM

SMILES: CNC1(c2ccccc2Cl)CCCCC1=O (racemic) [(R,S)-Ketamine, reference compound]
- Patients reporting a positive response [4]: 41%
- Response rate [4]: 30%
- Effect on acetylcholine-induced current [2]: inactive; also recorded: no observable effect
- IC50 [3]: 3.1 µM

SMILES: N[C@]1(c2ccccc2Cl)CCC[C@H](O)C1=O [(2S,6S)-hydroxynorketamine]
- Ki [1]: 21 µM and 21.2 µM
- Mean current evoked by 280 μM acetylcholine, normalized to acetylcholine alone [2]: 0.461 and 0.361
- IC50 [3]: > 200 µM

SMILES: NC1(c2ccccc2Cl)CCC=CC1=O (racemic) [(R,S)-dehydronorketamine]
- Effect on acetylcholine-evoked currents [5]: no effect
- Current activation (agonist effect) [2]: No measurable effect
- Hill coefficient nH [2]: 0.66 ± 0.05
- Inhibition of acetylcholine-induced current [2]: ~ 60%
- Mean current evoked by 280 μM acetylcholine, normalized to acetylcholine alone [2]: 0.407 and 0.205
- Voltage dependence of the inhibitory effect [2]: voltage-independent
- Inhibition of ACh-induced whole-cell current ([2]; 0.03 µM): 45%
- IC50 ([2]; read-out: IC50, inhibition of acetylcholine-evoked current): 0.055 ± 0.006 µM
- Displacement of [3H]-epibatidine [6]: did not competitively displace
- Displacement of [125I]-α-bungarotoxin [6]: did not competitively displace
- IC50 [3]: > 200 µM

SMILES: NC1(c2ccccc2Cl)CCCCC1=O (racemic) [(R,S)-norketamine]
- Inhibition of acetylcholine-induced current ([2]; 100 nM compound, 280 μM acetylcholine): ~ 45%
- Mean current evoked by 280 μM acetylcholine, normalized to acetylcholine alone ([2]; 100 nM compound, −80 mV, n = 4, fraction of current remaining): 0.548
- Mean current evoked by 280 μM acetylcholine, normalized to acetylcholine alone ([2]; 1000 nM compound, −80 mV, n = 4, fraction of current remaining): 0.287
- IC50 [3]: 9.1 µM

SMILES: N[C@@]1(c2ccccc2Cl)CCC=CC1=O [(R)-Dedhydronorketamine, (R)-dehydronorketamine]
- Ki [1]: 74.5 µM
- Displacement of [3H]-epibatidine [6]: not displaced
- Displacement of [125I]-α-bungarotoxin [6]: did not displace

SMILES: N[C@@]1(c2ccccc2Cl)CCCCC1=O [(R)-norKetamine, (R)-norketamine]
- Ki [1]: 26.5 µM

SMILES: N[C@]1(c2ccccc2Cl)CCCCC1=O [(S)-norKetamine, (S)-norketamine]
- Ki [1]: 2.25 ± 0.22 µM

SMILES: N[C@]1(c2ccccc2Cl)CCC=CC1=O [(S)-Dehydronorketamine, (S)-dehydronorketamine]
- Ki [1]: 39 µM
- Displacement of [3H]-epibatidine [6]: not displaced
- Displacement of [125I]-α-bungarotoxin [6]: did not displace
